Test results as given in US20220009920A1 (GB005, Inc., priority 2020, published 2022).

Experiments:
Assay in all cases: Large panel kinase profiling
Format in all cases: biochemical
Details in all cases: 1 μM test article, 1 mM ATP
AURKC/AURC = target: T1, AURKC/AURC (Homo sapiens, UniProt Q9UQB9)
T1 sequence (Q9UQB9 1-309): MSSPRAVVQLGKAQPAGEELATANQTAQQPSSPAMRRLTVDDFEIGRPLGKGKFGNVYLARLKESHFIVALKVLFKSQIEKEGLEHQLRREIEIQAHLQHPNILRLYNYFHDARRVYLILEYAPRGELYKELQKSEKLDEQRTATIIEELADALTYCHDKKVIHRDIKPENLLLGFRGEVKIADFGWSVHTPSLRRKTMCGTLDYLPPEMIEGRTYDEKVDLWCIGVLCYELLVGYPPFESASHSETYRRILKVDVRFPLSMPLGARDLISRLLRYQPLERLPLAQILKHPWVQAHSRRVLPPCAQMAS
Procedure, shortened: (§1)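 Kinase activity was followed with the PhosphoSens CSox-Sensor platform, testing compound at 1 μM in the presence of 1 mM ATP. Reactions ran at 30° C. and fluorescence (Ex 360 nm/Em 485 nm) was read kinetically every 1 min.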

CSNK2A2/CK2A2 = target: T2, CSNK2A2/CK2A2 (Homo sapiens, UniProt P19784)
T2 construct: AssayQuant Technologies, Inc. (service laboratory)
Procedure, shortened: as §1

DDR1 = target: T3, DDR1 (Homo sapiens, UniProt Q08345)
T3 construct: AssayQuant Technologies, Inc. (service laboratory)
Procedure, shortened: as §1

EIF2AK3/PEK = target: T4, EIF2AK3/PEK (Homo sapiens, UniProt Q9NZJ5)
T4 sequence (Q9NZJ5 30-1116): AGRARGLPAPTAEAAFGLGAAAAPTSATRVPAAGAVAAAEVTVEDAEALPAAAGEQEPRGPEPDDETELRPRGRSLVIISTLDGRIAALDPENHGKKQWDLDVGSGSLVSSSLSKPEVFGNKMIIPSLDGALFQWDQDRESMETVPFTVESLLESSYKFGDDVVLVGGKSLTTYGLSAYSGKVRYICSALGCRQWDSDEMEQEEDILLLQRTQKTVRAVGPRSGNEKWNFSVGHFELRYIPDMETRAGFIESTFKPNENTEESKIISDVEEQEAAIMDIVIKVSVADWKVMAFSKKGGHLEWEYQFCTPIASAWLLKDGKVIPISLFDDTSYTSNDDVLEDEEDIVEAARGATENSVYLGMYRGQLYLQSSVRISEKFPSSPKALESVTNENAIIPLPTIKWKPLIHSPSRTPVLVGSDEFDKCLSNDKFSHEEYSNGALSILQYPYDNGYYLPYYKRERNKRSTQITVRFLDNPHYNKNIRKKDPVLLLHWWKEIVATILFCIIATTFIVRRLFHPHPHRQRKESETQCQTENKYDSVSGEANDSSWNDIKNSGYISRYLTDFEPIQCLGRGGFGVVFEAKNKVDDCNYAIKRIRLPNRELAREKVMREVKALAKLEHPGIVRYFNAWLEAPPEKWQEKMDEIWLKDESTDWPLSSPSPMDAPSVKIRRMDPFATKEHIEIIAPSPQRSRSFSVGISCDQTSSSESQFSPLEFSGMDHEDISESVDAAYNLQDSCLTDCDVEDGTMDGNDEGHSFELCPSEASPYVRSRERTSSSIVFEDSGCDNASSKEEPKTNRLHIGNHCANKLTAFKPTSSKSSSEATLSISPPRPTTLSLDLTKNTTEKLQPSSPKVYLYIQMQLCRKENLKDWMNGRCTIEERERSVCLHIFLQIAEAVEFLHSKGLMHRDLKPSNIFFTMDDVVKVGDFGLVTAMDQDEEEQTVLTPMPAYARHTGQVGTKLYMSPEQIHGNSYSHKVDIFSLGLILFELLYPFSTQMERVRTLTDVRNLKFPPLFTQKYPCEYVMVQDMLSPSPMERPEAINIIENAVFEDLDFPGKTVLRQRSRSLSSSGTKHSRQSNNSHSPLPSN
Procedure, shortened: as §1

FLT4 = target: T5, FLT4 (Homo sapiens, UniProt P35916)
T5 construct: AssayQuant Technologies, Inc. (service provider)
Procedure, shortened: as §1

HCK = target: T6, HCK (Homo sapiens, UniProt P08631)
T6 construct: AssayQuant Technologies, Inc. (service provider)
Procedure, shortened: as §1

MINK1 = target: T7, MINK1 (Homo sapiens, UniProt Q8N4C8)
T7 construct: AssayQuant Technologies, Inc. (assay service)
Procedure, shortened: as §1

T7 sequence (Q8N4C8 whole entry, species assumed): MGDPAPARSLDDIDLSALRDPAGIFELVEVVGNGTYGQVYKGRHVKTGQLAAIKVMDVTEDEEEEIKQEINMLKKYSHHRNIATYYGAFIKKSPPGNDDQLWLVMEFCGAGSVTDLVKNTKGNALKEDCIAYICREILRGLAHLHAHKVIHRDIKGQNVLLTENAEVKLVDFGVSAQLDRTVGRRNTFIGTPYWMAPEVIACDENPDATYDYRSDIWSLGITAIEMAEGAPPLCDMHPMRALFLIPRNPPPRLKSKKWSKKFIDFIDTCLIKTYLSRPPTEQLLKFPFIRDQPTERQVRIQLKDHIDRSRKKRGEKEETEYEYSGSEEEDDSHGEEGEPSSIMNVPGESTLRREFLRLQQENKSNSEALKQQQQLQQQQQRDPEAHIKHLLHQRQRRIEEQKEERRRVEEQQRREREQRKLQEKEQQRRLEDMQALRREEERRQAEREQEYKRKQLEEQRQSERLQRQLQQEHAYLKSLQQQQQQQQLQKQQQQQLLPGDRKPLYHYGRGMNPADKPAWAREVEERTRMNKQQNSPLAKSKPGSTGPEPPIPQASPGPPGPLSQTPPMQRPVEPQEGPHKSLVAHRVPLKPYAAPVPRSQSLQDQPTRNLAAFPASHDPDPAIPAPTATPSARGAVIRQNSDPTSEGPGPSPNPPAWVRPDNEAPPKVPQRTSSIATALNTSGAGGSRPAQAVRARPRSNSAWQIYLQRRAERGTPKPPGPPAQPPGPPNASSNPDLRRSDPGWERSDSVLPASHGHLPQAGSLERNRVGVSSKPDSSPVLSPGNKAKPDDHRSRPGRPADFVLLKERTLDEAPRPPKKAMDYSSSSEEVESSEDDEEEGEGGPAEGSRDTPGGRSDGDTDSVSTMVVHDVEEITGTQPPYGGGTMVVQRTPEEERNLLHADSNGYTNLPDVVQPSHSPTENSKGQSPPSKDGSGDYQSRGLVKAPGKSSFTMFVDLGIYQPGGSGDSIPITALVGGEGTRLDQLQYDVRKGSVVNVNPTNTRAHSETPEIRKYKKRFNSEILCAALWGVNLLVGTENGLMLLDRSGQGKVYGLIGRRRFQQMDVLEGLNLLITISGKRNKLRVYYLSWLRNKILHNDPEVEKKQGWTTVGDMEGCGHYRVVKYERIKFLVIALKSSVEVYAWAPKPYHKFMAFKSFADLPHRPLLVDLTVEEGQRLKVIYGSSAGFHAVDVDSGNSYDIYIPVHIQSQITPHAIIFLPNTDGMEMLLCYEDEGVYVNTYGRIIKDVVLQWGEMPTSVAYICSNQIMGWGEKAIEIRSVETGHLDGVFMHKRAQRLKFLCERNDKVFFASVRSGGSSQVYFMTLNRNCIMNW
T3 sequence (Q08345 19-913, species assumed): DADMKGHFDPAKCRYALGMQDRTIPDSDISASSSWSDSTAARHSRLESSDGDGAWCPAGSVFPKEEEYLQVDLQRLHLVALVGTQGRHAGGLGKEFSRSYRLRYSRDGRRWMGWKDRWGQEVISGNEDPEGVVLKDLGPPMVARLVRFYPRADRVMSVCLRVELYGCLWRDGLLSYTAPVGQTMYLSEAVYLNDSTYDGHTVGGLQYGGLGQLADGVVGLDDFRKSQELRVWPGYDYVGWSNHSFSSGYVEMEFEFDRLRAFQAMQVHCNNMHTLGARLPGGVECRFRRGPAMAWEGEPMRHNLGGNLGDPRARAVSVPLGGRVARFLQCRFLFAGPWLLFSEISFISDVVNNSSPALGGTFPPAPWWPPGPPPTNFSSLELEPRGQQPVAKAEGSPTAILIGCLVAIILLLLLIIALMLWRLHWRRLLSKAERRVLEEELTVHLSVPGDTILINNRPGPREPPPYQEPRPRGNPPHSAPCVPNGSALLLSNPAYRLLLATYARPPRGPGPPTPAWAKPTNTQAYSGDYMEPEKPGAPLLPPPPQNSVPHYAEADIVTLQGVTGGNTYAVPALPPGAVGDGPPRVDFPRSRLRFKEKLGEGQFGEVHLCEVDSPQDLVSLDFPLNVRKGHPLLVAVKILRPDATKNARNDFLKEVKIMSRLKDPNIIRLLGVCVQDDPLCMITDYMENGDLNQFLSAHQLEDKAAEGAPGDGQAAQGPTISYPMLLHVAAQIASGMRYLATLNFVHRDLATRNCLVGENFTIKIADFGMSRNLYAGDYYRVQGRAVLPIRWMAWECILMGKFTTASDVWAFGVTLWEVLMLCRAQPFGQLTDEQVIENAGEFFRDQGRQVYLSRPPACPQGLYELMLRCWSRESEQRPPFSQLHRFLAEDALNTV
T6 sequence (P08631 whole entry, species assumed): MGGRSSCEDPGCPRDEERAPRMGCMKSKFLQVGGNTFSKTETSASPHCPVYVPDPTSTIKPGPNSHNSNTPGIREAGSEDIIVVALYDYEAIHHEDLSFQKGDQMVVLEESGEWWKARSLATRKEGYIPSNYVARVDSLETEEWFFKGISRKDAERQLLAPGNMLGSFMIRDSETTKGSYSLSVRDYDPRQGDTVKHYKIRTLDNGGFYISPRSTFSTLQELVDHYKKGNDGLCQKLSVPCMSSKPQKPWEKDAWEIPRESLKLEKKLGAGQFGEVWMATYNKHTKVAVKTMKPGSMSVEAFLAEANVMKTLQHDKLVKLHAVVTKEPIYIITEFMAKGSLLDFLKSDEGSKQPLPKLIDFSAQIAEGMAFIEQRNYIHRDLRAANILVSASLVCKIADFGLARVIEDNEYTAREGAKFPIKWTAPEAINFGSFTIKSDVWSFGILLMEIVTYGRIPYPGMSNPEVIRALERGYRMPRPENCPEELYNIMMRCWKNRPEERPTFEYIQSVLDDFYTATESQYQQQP
T2 sequence (P19784 whole entry): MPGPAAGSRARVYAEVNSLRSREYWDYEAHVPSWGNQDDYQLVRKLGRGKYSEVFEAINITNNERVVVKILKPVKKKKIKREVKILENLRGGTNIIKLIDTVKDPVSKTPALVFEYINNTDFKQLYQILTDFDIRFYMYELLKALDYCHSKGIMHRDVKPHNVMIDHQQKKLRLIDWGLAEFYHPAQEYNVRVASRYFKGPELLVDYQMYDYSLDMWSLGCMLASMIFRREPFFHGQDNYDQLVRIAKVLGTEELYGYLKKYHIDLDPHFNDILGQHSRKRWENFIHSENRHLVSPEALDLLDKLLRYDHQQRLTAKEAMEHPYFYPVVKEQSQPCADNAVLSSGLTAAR
T5 sequence (P35916 25-1363, species assumed): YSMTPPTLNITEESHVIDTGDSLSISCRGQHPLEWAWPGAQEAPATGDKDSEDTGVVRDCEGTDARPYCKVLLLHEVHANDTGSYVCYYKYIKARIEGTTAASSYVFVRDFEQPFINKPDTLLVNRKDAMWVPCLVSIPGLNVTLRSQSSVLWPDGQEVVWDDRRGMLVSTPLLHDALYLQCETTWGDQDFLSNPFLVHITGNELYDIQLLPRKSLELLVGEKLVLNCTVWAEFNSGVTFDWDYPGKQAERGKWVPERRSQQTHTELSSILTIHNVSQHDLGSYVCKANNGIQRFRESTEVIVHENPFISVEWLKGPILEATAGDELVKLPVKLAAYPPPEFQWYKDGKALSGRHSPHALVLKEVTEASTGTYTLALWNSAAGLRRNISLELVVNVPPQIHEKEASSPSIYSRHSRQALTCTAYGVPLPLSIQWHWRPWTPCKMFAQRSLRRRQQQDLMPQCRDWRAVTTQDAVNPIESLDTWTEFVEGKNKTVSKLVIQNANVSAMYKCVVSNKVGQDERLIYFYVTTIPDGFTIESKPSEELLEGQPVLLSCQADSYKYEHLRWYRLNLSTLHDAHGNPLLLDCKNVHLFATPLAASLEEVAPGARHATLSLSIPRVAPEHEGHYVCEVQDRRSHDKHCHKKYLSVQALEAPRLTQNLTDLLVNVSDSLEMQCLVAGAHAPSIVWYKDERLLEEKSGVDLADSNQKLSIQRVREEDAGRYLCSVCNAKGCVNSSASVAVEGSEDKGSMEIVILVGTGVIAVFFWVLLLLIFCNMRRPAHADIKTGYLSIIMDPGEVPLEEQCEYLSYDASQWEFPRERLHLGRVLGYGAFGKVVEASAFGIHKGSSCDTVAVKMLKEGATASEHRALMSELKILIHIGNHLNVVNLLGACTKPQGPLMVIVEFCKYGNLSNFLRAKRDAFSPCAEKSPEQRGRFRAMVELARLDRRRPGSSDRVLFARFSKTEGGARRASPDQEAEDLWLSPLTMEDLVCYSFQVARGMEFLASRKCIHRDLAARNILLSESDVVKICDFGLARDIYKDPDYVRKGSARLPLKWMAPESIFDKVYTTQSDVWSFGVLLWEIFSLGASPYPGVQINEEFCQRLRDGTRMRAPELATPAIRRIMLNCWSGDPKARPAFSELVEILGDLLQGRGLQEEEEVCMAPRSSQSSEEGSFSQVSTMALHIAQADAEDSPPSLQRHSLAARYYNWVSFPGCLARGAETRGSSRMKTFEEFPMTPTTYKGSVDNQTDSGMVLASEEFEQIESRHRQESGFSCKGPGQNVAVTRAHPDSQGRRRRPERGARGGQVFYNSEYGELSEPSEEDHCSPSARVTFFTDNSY

Compound | inhibition at 1 µM (AURKC/AURC) | inhibition at 1 µM (CSNK2A2/CK2A2) | inhibition at 1 µM (DDR1) | inhibition at 1 µM (EIF2AK3/PEK) | inhibition at 1 µM (FLT4) | inhibition at 1 µM (HCK) | inhibition at 1 µM (MINK1)
C=CC(=O)N1CCCC(c2c(F)cc(C(N)=O)c3[nH]c4c(c23)CCCCC4)C1 (single isomer, unassigned) [Compound 5-6] | -8.9% | 11.4% | 1.4% | -9.2% | 19.7% | 6.8% | -2.8%
C=CC(=O)N1CCC[C@@H](c2c(F)cc(C(N)=O)c3[nH]c4c(c23)CC2(CC4)CC2)C1 [Compound 6-2, (S)-5-(1-acryloylpiperidin-3-yl)-6-fluoro-1,2,4,9-tetrahydrospiro[carbazole-3,1′-cyclopropane]-8-carboxamide] | -2% | -141% | 24.5% | -18.5% | 20.4% | 2.8% | -22.7%
C=CC(=O)N1CCC[C@@H](c2c(F)cc(C(N)=O)c3[nH]c4c(c23)CCC4)C1 [Compound 10-2, (S)-8-(1-acryloylpiperidin-3-yl)-7-fluoro-1,2,3,4-tetrahydrocyclo-penta[b]indole-5-carboxamide] | 16.7% | -144% | -41.1% | -3.5% | 1.8% | -5.8% | -18.4%
